{"source": "patent US8431614B2", "about": "“Loxoprofen derivative and pharmaceutical preparation containing the same” (LTT Bio-Pharma Co., Ltd., priority 2009, dated 2013)", "target": "T1, COX-2 (Homo sapiens, UniProt P35354)", "T1 construct": "from tissue; host or cells: heparinised human whole blood from a healthy donor, stimulated with LPS", "T1 sequence (P35354 18-604)": "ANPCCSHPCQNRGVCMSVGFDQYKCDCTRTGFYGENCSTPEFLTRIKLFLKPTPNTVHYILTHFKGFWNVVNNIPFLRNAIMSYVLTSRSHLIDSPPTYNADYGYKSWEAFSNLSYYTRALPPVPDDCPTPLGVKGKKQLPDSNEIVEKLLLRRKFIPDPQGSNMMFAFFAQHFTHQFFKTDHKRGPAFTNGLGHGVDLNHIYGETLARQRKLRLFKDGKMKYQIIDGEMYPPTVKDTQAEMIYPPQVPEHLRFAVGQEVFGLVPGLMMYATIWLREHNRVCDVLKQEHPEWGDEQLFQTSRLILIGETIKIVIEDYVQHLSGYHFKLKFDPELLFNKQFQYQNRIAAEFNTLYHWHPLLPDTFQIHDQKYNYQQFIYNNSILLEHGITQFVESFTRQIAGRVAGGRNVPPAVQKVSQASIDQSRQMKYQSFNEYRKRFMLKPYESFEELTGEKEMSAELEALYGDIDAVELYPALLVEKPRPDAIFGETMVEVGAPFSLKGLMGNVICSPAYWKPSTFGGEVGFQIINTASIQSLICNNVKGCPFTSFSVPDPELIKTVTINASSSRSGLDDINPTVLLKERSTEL", "assay": "Human whole blood assay, in vitro COX-2 assay (LPS-induced PGE2 by EIA)", "type": "cell-based", "details": "ratio of IC50 COX-1 to IC50 COX-2", "protocol": "This test was performed according to the method described in Inflamm. Res., 45: 68-74 (1996).\nA person who had not taken NSAIDs for at least one week and was healthy on the day of blood collection was selected as a subject for blood collection.\nBlood was collected in heparin-treated test tubes (Venojectll blood collection tubes, Terumo Corporation), and an inflammatory stimulant, lipopolysaccharide (LPS) (Sigma-Aldrich Japan Inc., #L2880 from E. coli055:B5: diluted in phosphate buffered saline (PBS) to a final concentration of 100 μg/mL) was added to the blood. The mixture was dispensed in 500 μL aliquots into tubes. 2 μL of the test compound (final concentration: 0.1 μM to 1000 μM) dissolved in an appropriate solvent (DMSO or MilliQ water) was added and incubated at 37° C. for 24 hours to induce COX-2.\nAfter incubation, the samples were centrifuged at 12,000×g for 5 minutes to separate serum. 100 μL of the obtained serum was added to 400 μL of ethanol to remove blood protein, and the mixture was centrifuged again at 12,000×g for 5 minutes. PGE2 in the supernatant was quantified by using an enzyme immunoassay (EIA) kit [Cayman (Ann, Arbor, Mich., USA) #514040]. The protocol followed the protocol attached to the kit.", "data": [{"smiles": "CC(C(=O)O)c1ccc(CC2CCCC2=O)cc1", "note": "(stereo not shown) [LOXONIN, loxoprofen]", "values": [{"measurement": "COX-2 S[…]. 1/COX. 2", "result": 4.0}]}]}
